Legend:
Type in all cases: functional
[1] = tested on: Eubacterium limosum; test: Antimicrobial activity against Eubacterium limosum by Wadsworth agar dilution method in presence of beta-lactamase inhibitor Sulbactam
[2] = tested on: Bifidobacterium longum; test: Antimicrobial activity against Bifidobacterium longum by Wadsworth agar dilution method in presence of beta-lactamase inhibitor Sulbactam
[3] = tested on: Parabacteroides goldsteinii; test: Antimicrobial activity against Parabacteroides goldsteinii by Wadsworth agar dilution method in presence of beta-lactamase inhibitor Sulbactam
[4] = tested on: Cutibacterium acnes; test: Antimicrobial activity against Propionibacterium acnes by Wadsworth agar dilution method in presence of beta-lactamase inhibitor Sulbactam
[5] = tested on: Clostridium subterminale; test: Antimicrobial activity against Clostridium subterminale by Wadsworth agar dilution method in presence of beta-lactamase inhibitor Sulbactam
[6] = tested on: Desulfovibrio desulfuricans; test: Antimicrobial activity against Desulfovibrio desulfuricans by Wadsworth agar dilution method in presence of beta-lactamase inhibitor Sulbactam
[7] = tested on: Ruminococcus torques; test: Antimicrobial activity against Ruminococcus torques by Wadsworth agar dilution method in presence of beta-lactamase inhibitor Sulbactam; conditions: Mediterraneibacter torques
[8] = tested on: Bacteroides ovatus; test: Antimicrobial activity against Bacteroides ovatus by Wadsworth agar dilution method in presence of beta-lactamase inhibitor Sulbactam
[9] = tested on: Propionibacterium propionicum; test: Antimicrobial activity against Propionibacterium propionicum by Wadsworth agar dilution method in presence of beta-lactamase inhibitor Sulbactam; conditions: Arachnia propionica
[10] = tested on: Porphyromonas; test: Antimicrobial activity against Porphyromonas sp. by Wadsworth agar dilution method in presence of beta-lactamase inhibitor Sulbactam
[11] = tested on: Blautia producta; test: Antimicrobial activity against Ruminococcus productus by Wadsworth agar dilution method in presence of beta-lactamase inhibitor Sulbactam
[12] = tested on: Clostridium hathewayi; test: Antimicrobial activity against Clostridium hathewayi by Wadsworth agar dilution method in presence of beta-lactamase inhibitor Sulbactam; conditions: Hungatella hathewayi
[13] = tested on: Anaerococcus prevotii; test: Antimicrobial activity against Anaerococcus prevotii by Wadsworth agar dilution method in presence of beta-lactamase inhibitor Sulbactam
[14] = tested on: Actinomyces viscosus; test: Antimicrobial activity against Actinomyces viscosus by Wadsworth agar dilution method in presence of beta-lactamase inhibitor Sulbactam
[15] = tested on: Ruminococcus flavefaciens; test: Antimicrobial activity against Ruminococcus flavefaciens by Wadsworth agar dilution method in presence of beta-lactamase inhibitor Sulbactam
[16] = tested on: Anaerococcus tetradius; test: Antimicrobial activity against Anaerococcus tetradius by Wadsworth agar dilution method in presence of beta-lactamase inhibitor Sulbactam
[17] = tested on: Peptoniphilus asaccharolyticus; test: Antimicrobial activity against Peptoniphilus asaccharolyticus by Wadsworth agar dilution method in presence of beta-lactamase inhibitor Sulbactam
[18] = tested on: Clostridium tertium; test: Antimicrobial activity against Clostridium tertium by Wadsworth agar dilution method in presence of beta-lactamase inhibitor Sulbactam
[19] = tested on: Eubacterium rectale; test: Antimicrobial activity against Eubacterium rectale by Wadsworth agar dilution method in presence of beta-lactamase inhibitor Sulbactam; conditions: Agathobacter rectalis
[20] = tested on: Clostridium butyricum; test: Antimicrobial activity against Clostridium butyricum by Wadsworth agar dilution method in presence of beta-lactamase inhibitor Sulbactam
[21] = tested on: Parvimonas micra; test: Antimicrobial activity against Peptostreptococcus micros by Wadsworth agar dilution method in presence of beta-lactamase inhibitor Sulbactam
[22] = tested on: Bifidobacterium breve; test: Antimicrobial activity against Bifidobacterium breve by Wadsworth agar dilution method in presence of beta-lactamase inhibitor Sulbactam
[23] = tested on: Parabacteroides distasonis; test: Antimicrobial activity against Parabacteroides distasonis by Wadsworth agar dilution method in presence of beta-lactamase inhibitor Sulbactam
[24] = tested on: Clostridium nexile; test: Antimicrobial activity against Clostridium nexile by Wadsworth agar dilution method in presence of beta-lactamase inhibitor Sulbactam; conditions: Faecalimonas nexilis
[25] = tested on: Clostridium beijerinckii; test: Antimicrobial activity against Clostridium beijerinckii by Wadsworth agar dilution method in presence of beta-lactamase inhibitor Sulbactam
[26] = tested on: Prevotella intermedia; test: Antimicrobial activity against Prevotella intermedia by Wadsworth agar dilution method in presence of beta-lactamase inhibitor Sulbactam
[27] = tested on: Lactobacillus sp.; test: Antimicrobial activity against Lactobacillus sp. by Wadsworth agar dilution method in presence of beta-lactamase inhibitor Sulbactam
[28] = tested on: Holdemania filiformis; test: Antimicrobial activity against Holdemania filiformis by Wadsworth agar dilution method in presence of beta-lactamase inhibitor Sulbactam
[29] = tested on: Atopobium minutum; test: Antimicrobial activity against Atopobium minutum by Wadsworth agar dilution method in presence of beta-lactamase inhibitor Sulbactam
[30] = tested on: Desulfovibrio vulgaris; test: Antimicrobial activity against Desulfovibrio vulgaris by Wadsworth agar dilution method in presence of beta-lactamase inhibitor Sulbactam; conditions: Nitratidesulfovibrio vulgaris
[31] = tested on: Clostridium fallax; test: Antimicrobial activity against Clostridium fallax by Wadsworth agar dilution method in presence of beta-lactamase inhibitor Sulbactam
[32] = tested on: Prevotella bivia; test: Antimicrobial activity against Prevotella bivia by Wadsworth agar dilution method in presence of beta-lactamase inhibitor Sulbactam
[33] = tested on: Tissierella praeacuta; test: Antimicrobial activity against Clostridium hastiforme by Wadsworth agar dilution method in presence of beta-lactamase inhibitor Sulbactam
[34] = tested on: Ruminococcus obeum; test: Antimicrobial activity against Ruminococcus obeum by Wadsworth agar dilution method in presence of beta-lactamase inhibitor Sulbactam; conditions: Blautia obeum

CC1(C)S[C@@H]2[C@H](NC(=O)[C@H](N)c3ccccc3)C(=O)N2[C@H]1C(=O)O [AMPICILLIN]
4 µg/mL: MIC90 [26] | MIC50 [30] | MIC90 [32]
1 µg/mL: MIC90 [5] | MIC90 [18] | MIC90 [20] | MIC90 [24] | MIC90 [25] | MIC90 [31] | MIC90 [33]
32 µg/mL: MIC90 [3] | MIC90 [8] | MIC90 [23] | MIC90 [30]
0.5 µg/mL: MIC90 [10] | MIC50 [26] | MIC50 [32]
16 µg/mL: MIC50 [3] | MIC50 [23]
2 µg/mL: MIC90 [1] | MIC90 [2] | MIC90 [4] | MIC90 [7] | MIC90 [9] | MIC90 [11] | MIC50 [12] | MIC90 [12] | MIC90 [13] | MIC90 [14] | MIC90 [15] | MIC90 [16] | MIC90 [17] | MIC90 [19] | MIC90 [21] | MIC90 [22] | MIC90 [27] | MIC90 [28] | MIC90 [29] | MIC90 [34]
8 µg/mL: MIC50 [6] | MIC90 [6] | MIC50 [8]
0.25 µg/mL: MIC [1] | MIC50 [1] | MIC [2] | MIC50 [2] | MIC [4] | MIC50 [4] | MIC [5] | MIC50 [5] | MIC [7] | MIC50 [7] | MIC [9] | MIC50 [9] | MIC [10] | MIC50 [10] | MIC [11] | MIC50 [11] | MIC [13] | MIC50 [13] | MIC [14] | MIC50 [14] | MIC [15] | MIC50 [15] | MIC [16] | MIC50 [16] | MIC [17] | MIC50 [17] | MIC [18] | MIC50 [18] | MIC [19] | MIC50 [19] | MIC [20] | MIC50 [20] | MIC [21] | MIC50 [21] | MIC [22] | MIC50 [22] | MIC [24] | MIC50 [24] | MIC [25] | MIC50 [25] | MIC [27] | MIC50 [27] | MIC [28] | MIC50 [28] | MIC [29] | MIC50 [29] | MIC [31] | MIC50 [31] | MIC [33] | MIC50 [33] | MIC [34] | MIC50 [34]
